Measured values from patent publication US7332505B2, “Nitrosated and nitrosylated proton pump inhibitors, compositions and methods of use” (Nitromed, Inc., priority 1999, dated 2008).
“Also recorded” adds a separate entry of the source.

System: ethanol/HCl mixture-induced gastric lesions
Assay: ethanol/HCl mixture-induced gastric lesion test in rats
Type: in vivo, Male Sprague Dawley rats
Settings: for inhibition of the formation of gastric lesions (gastric lesion score) relative to vehicle alone: 200 μmol/kg by oral gavage 30 min before 60% ethanol in 150 mM HCl intragastrically, lesions scored 60 min later, vehicle 0.5% Methocel, FIG. 1
Protocol: The ethanol/HCl mixture-induced gastric lesion test in rats described by Takeuchi et al, J. Pharmacol. Exp. Ther., 286: 115-121 (1998), was used to evaluate gastric lesion activity. Male Sprague Dawley rats (Charles River Laboratories, Wilmington, Ma.) weighing 230-250 g were used for the experiments. The rats were housed with laboratory chow and water ad libitum prior to the study. The rats were fasted for 24 hours with free access to water and then dosed by oral gavage with vehicle or with the test compounds given at a volume of 0.5 ml/100 g body weight. Thirty minutes after oral dosing all the rats received 1 ml of a solution of 60% ethanol in 150 mM HCl intragastrically. Food was withheld after dosing. Sixty minutes after ethanol/HCl, rats were euthanized by pre-charged CO2. The stomachs were dissected along the greater curvature, washed with a directed stream of 0.9% saline and pinned open on a sylgard based petri dish for examination of the hemorrhagic lesions. Gastric lesion score was expressed in mm and calculated by summing the length of each lesion as described by Al-Ghamdi et al, J. Int. Med. Res., 19:2242 (1991). Results are expressed as the mean ± standard error of the mean. Statistical analysis were conducted using ANOVA test followed by a Student-Newman-Keuls post-hoc test using the Abacus Concepts, Super Anova computer program (Abacus Concepts, Inc., Berkeley, Calif.).

SMILES	inhibition of the formation of gastric lesions (gastric lesion score) relative to vehicle alone	inhibition of the formation of gastric lesions (gastric lesion score) relative to lanzoprazole (200 μmol/kg by oral gavage 30 min before ethanol/HCl, p<0.05, FIG. 1)
Cc1c(CC(F)(F)F)ccnc1C[S+]([O-])c1nc2ccccc2n1COC(=O)CCC(=O)N(Cc1ccccc1)CC(C)(C)SN=O (stereo not drawn) [Example 2, {2-({[3-Methyl-4-(2,2,2-trifluoroethyl)-2-pyridyl]methyl}sulfinyl)benzimidazolyl]-methyl-3-{N-[2-methyl-2-(nitrosothio)-propyl]-N-benzylcarbamoyl}propanoate]	significantly inhibited the formation of gastric lesions	inhibited the formation of gastric lesions
Cc1c(OCC(F)(F)F)ccnc1C[S+]([O-])c1nc2ccccc2[nH]1 (stereo not drawn) [Lanzoprazole, 2-(((3-methyl-4-(2,2,2-trifluoro-ethoxy)-2-pyridinyl)methyl)sulfinyl)-1H-benzimidazole, reference compound]	did not significantly inhibit the formation of gastric lesions; also recorded: failed to significantly inhibit the formation of gastric lesions	
